From patent publication US11142524B2, “Substituted-3H-imidazo[4,5-c]pyridine and 1H-pyrrolo[2,3-c]pyridine series of novel Ectonucleotide Pyrophosphatase/Phosphodiesterase-1 (ENPP1) and stimulator for interferon genes (STING) modulators as cancer immunotherapeutics” (Stingray Therapeutics, Inc., priority 2018, dated 2021)

What was measured:
ENPP1 protein [1] = biological target: T1, ENPP1 protein (Homo sapiens (Human), UniProt P22413); assay: ENPP1 Inhibition Assay (thymidine 5′-monophosphate p-nitrophenol ester substrate); assay type: biochemical
Protocol: Assay Buffer: 1 mM CaCl2, 0.2 mM ZnCl2, 50 mM Tris, pH 9.0. Substrate: 8 mM Thymidine 5′-monophosphate p-nitrophenol ester sodium salt (Sigma Cat #T4510). Enzyme: 5 ng/L Recombinant Human ENPP-1 Protein (R&D Cat #6136-EN-010) in DMSO in 96-well clear assay plates
(§1) An eight point serial dilution of drugs was prepared in 10× in assay buffer with the final assay concentrations starting at 10 μM, 3 μM, 1 μM, 0.3 μM . . . 0 μM. A dilution of DMSO was included as a control. The assay plate was set up as follows with each well in duplicate: 81 μL assay buffer+10 μL ENPP1 inhibitor or DMSO+5 μL Substrate+4 μL Enzyme. Both the enzyme and substrate were added to opposite sides of the well to ensure that there was no interaction until all wells had both components. The plate was then centrifuged gently for 10 seconds, followed by an incubation at 37° C. for 45 minutes. The reaction was quantified by measuring absorbance at 405 nm using the Envision.
(§2) IC50 values are determined using GraphPad Prism 5 software. The data were entered as an X-Y plot into the software as percent inhibition for each concentration of the drug. The concentration values of the drug were log transformed and the nonlinear regression was carried out using the “sigmoidal dose-response (variable slope)” option within the GraphPad software to model the data and calculate IC50 values. The IC50 values reported are the concentration of drug at which 50% inhibition was reached.

[2] = biological target: Recombinant Human ENPP-2/Autotaxin Protein (Homo sapiens (Human), UniProt Q13822); assay: ENPP2 Inhibition Assay; assay type: biochemical
Protocol: Assay Buffer: 10 mM CaCl2, 5 mM MgCl2, 50 mM Tris, 0.02% Brij-35, pH 8.5. Substrate: 2 mM Bis(p-Nitrophenyl) Phosphate Sodium Salt (Sigma Cat # N3002). Enzyme: 0.2 ng/μL Recombinant Human ENPP-2/Autotaxin Protein (R&D Cat #5255-EN), PF-3080 in DMSO in 96-well clear assay plates
as §1, with “15” for “81”, “DMSO+50” for “DMSO+5”, “Substrate+25” for “Substrate+4”
as §2

ENPP1 protein [3] = biological target: T1, ENPP1 protein; assay: ENPP1 Thermal Shift Assay (Example 1); assay type: binding
Protocol: Assay Buffer (1 mM CaCl2, 0.2 mM ZnCl2, 50 mM Tris, pH 9.0) 5000×SYPRO Orange (ThermoFisher cat #S6651) 384-well PCR Plates
Each drug was prepared as a 10× solution in the assay buffer and SYPRO Orange was diluted to 10× concentration in water. Wells were set up in duplicate in a 384-well PCR plate as follows: 14 μL assay buffer, 2 μL ENPP1 Inhibitor or DMSO, 2 μL (0.5 μg) ENPP1 protein. Each well was mixed and incubated on ice for 5 minutes. Post incubation, 2 μL of SYPRO Orange was mixed into each well and followed by a gentle centrifugation. The protein melt reaction was run using ViiA7 software with temperatures beginning at 25° C. and increasing by 0.05° C./s to the maximum temperature of 99° C.
In a 384-well plate, 1.0 μg of ENPP1 protein incubated with 100 μM of the corresponding drug for 5 minutes. Each well exposed to increasing temperatures to determine an unfolding temperature of the protein.

Saos-2 Cells = assay: ENPP1 Mineralization Assay; assay type: cell-based; conditions: FIG. 4, normalized against DMSO control
Protocol: Saos-2 Cells (ATCC CAT #HTB-85). Culture Medium. 24-well Tissue Culture Plate. Ascorbic Acid, 5 mg/mL (100×). β-Glycerophosphate, 1M (100×). Phosphate Buffered Saline. Alizarin Red, 40 mM pH 4.2. 70% Ethanol. Dye Extraction Reagent, 10% Methanol+10% Acetic Acid
Saos-2 cells were plated at a density of 1.5×10^6 cells/well and allowed to grow to 100% confluency over the following 1-2 days. Once completely confluent, the media was replaced with fresh media supplemented with 1× ascorbic acid, 1× β-glycerophosphate, and varying concentrations of ENPP1 inhibitor (if applicable). The addition of the mineralization components was considered Day 1. On Day 3, the media was gently aspirated with no wash followed by the addition of fresh media, mineralization components, and ENPP1 inhibitor (if applicable). On day 5, the media was gently aspirated and the cells were washed twice with PBS. The cells were then fixed with ice cold 70% ethanol for 1 hour at 4° C. Cells were washed once with PBS and stained with Alizarin Red for 30 minutes at room temperature with gentle rotation. Stained cells were washed three times with water for 10 minutes at room temperature with gentle rotation. After imaging cells, dye extraction reagent was added to each well and incubated for 30 minutes at room temperature. Alizarin red was quantified by measuring absorbance at a wavelength of 405 nm using the Envision.
FIG. 9 depicts a picture of results of a similar SAOS-2 mineralization assay. SAOS-2 cell were cultured in the presence and absence of ENPP1 inhibitor (compound 78, 107-02 or 108) and exposed to mineralization components for 3 days.

B16F10 tumor = assay: Anti-tumor efficacy in B16F10 (melanoma) syngeneic model; assay type: in vivo, C57BL/6 mice
Text: Animals: Female C57BL/6 (4-6 week's age from Taconic).
The B16F10 cells were propagated in DMEM cell culture medium containing 10% Fetal Bovine Serum. Cells were harvested in logarithmic growth phase and implanted subcutaneously ([…]) in the lower abdomen of mice. Tumor growth was monitored daily and after the tumors had reached 80 to 100 mm3, mice were randomized into groups consisting of 8 animals per group. Animals were euthanized when tumors reached around 2000 mm^3 or treatment regime completed or 20% of body weight loss, or developed ulceration and necrosis. Upon termination, tumor samples and blood were collected and analyzed for biomarkers.

CT26 tumor = CT26 tumor growth inhibition study; assay type: in vivo; conditions: 30 mg P.O. QD, FIG. 14
MDA-MB-468 = assay: Chou-Talalay Synergy Study with Olaparib, MDA-MB-468; assay type: cell-based; conditions: MDA-MB-468, 72 hours
Protocol: Cell Lines: MDA-MB-468 and UWB289.1 (ATCC). Cell Titer Glo (Promega cat #: G7572). 96-well TC treated, white assay plates
Cells were cultured according to ATCC tissue culture recommendations. Cells were plated in a 96-well tissue culture plate at a density of 1500 cells/well and allowed to settle overnight. The following day, both drugs were prepared at 10× concentration in the following ratios (Compound 22:Olaparib): 1:1, 10:1, and 1:10. The drugs were serially diluted to create an 8-point dose curve and 10 μL of each drug was added to the cells for a total volume of 100 μL/well. Plates were placed in a tissue culture incubator for 72 hours. Following incubation, each plate was treated with Cell Titer Glo according to vendor recommendation and luminescence was measured with the Envision Plate Reader. Data was analyzed using CalcuSyn software according to the methods described in Chou, Drug combination studies and their synergy quantification using the Chou-Talalay method, Cancer Res. 2010 Jan. 15; 70(2):440-6.
A Combination index (CI) value greater than 1 indicates […], equal to 1 indicates additive and less than 1 indicates synergy.

T1 sequence (P22413 whole entry, looked up, change not shown): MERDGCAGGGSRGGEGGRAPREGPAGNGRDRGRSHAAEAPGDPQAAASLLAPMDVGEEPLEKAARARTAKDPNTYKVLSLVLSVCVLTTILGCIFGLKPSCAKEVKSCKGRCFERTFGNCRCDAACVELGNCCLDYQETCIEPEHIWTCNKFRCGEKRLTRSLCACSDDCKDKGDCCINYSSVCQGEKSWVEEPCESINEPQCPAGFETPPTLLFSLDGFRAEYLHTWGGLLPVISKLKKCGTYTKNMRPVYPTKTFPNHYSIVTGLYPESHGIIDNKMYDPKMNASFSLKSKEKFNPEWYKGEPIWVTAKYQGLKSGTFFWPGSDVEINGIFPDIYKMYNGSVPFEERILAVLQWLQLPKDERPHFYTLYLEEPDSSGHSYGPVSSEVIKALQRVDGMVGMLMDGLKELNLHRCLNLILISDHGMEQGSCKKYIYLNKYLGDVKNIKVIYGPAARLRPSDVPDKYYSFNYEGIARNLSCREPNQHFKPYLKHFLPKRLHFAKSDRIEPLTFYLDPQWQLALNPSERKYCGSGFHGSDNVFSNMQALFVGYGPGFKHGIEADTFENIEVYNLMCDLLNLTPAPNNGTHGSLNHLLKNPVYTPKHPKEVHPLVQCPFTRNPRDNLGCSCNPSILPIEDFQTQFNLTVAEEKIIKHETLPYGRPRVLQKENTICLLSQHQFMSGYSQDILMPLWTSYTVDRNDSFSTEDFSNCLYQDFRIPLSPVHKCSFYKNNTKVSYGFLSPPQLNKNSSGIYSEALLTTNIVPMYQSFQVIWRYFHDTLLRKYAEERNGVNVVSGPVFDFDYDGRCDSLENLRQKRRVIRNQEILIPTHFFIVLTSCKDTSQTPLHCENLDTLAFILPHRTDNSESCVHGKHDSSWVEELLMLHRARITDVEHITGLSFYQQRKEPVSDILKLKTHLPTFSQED

## COc1ccc(NC(=O)CSc2nc3cc(Cl)ncc3[nH]2)cc1O [Compound 21, 2-((6-chloro-3H-imidazo[4,5-c]pyridin-2-yl)thio)-N-(3-hydroxy-4-methoxyphenyl) acetamide]
ENPP1 protein [1]; FIG. 1
  inhibiting the activity of ENPP1: effective
ENPP1 protein [1]; Table 1, FIG. 1, read-out: IC50
  IC50: 86.8 nM
[2]
  selective at inhibiting ENPP1 but not ENPP2: selective
[2]; FIGS. 2A and 2B
  inhibiting the activity of ENPP2: ineffective
ENPP1 protein [3]; FIG. 3
  increasing the stability of recombinant ENPP1 protein: effective
ENPP1 protein [3]; FIG. 3, ENPP1 alone 64.2° C.
  Tm (midpoint of the protein unfolding transition) of ENPP1: 67.84 °C
Saos-2 Cells
  inhibiting ENPP1 ability to produce mineralized nodules: effective

## COc1cc(NC(=O)CSc2nc3cc(Cl)ncc3[nH]2)ccc1O [Compound 22, 2-((6-chloro-3H-imidazo[4,5-c]pyridin-2-yl)thio)-N-(4-hydroxy-3-methoxyphenyl) acetamide]
ENPP1 protein [3]; Table 2, FIG. 7, 100 μM drug, 1.0 μg ENPP1, NT 60.05
  Tm (° C.): 61.37 °C
ENPP1 protein [3]; Table 2, FIG. 7, 100 μM drug, 1.0 μg ENPP1, read-out: ΔTm (° C.)
  ΔTm at 100 µM: 1.32 °C
B16F10 tumor; 30 mg/kg dose (FIG. 6A / FIG. 13A)
  B16F10 tumor growth inhibition: 28%
B16F10 tumor; FIG. 6B / FIG. 13B, dose and route not stated
  B16F10 tumor growth inhibition: 27%
CT26 tumor
  CT26 tumor growth inhibition: 39%

## O=C(c1cc(Cc2n[nH]c(=O)c3ccccc23)ccc1F)N1CCN(C(=O)C2CC2)CC1 [Olaparib]
MDA-MB-468
  ED50 Drug Concentration Olaparib: 185065 nM
